According to ChEMBL document CHEMBL1139273, “Aryl aminopyrazole benzamides as oral non-steroidal selective glucocorticoid receptor agonists” (Bioorg Med Chem Lett, 2009):

Legend:
[1] = Inhibition of TNF-induced NF-kappaB activation in human A549 cells after 15 hrs; settings: Homo sapiens, A549, 15 h, read-out: pIC50 (converted)
[2] = tested on: A549; assay: Inhibition of TNF-induced NFkappaB activation in human A549 cells after 15 hrs relative to Dexamethasone; type: cell-based; parameters: scale not given: the % may be the effect or the level left
[3] = target: T1, Cytochrome P450 1A2 (Homo sapiens, UniProt P05177); assay: Inhibition of CYP1A2; type: ADME
T1 sequence (P05177 whole entry): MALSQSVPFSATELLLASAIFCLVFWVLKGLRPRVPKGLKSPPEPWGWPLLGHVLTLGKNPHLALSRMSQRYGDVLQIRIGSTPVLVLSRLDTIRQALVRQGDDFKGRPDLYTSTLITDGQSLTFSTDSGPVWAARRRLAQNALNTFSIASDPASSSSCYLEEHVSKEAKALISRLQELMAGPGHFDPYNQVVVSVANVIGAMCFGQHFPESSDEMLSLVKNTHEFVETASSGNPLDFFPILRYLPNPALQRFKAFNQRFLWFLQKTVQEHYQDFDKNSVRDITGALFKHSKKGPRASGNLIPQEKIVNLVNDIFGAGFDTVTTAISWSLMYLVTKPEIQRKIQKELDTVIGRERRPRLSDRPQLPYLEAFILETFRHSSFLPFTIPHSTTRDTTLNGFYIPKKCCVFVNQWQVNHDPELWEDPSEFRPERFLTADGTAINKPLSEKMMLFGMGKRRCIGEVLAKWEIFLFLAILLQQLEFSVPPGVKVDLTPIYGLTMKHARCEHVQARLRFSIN

[4] = target: Cytochrome P450 2C19 (Homo sapiens, UniProt P33261); assay: Inhibition of CYP2C19; type: ADME
[5] = target: Cytochrome P450 2C9 (Homo sapiens, UniProt P11712); assay: Inhibition of CYP2C9; type: ADME
[6] = target: Cytochrome P450 2D6 (Homo sapiens, UniProt P10635); assay: Inhibition of CYP2D6; type: ADME
[7] = target: Albumin (Homo sapiens, UniProt P02768); assay: Binding affinity to human serum albumin by fast gradient HPLC; type: ADME; settings: isolated protein
[8] = Protein binding in human plasma by ultrafiltration; type: ADME, cell-free; settings: read-out: PPB (converted)
[9] = Clearance in Sprague-Dawley rat at 1 mg/kg, iv and 1 mg/kg, po; type: ADME, organism-based; settings: in vivo
[10] = Volume of distribution at steady state in Sprague-Dawley rat at 1 mg/kg, iv and 1 mg/kg, po; type: ADME, organism-based; settings: in vivo, read-out: Vdss
[11] = Oral bioavailability in Sprague-Dawley rat at 1 mg/kg; type: ADME, organism-based; settings: in vivo
[12] = target: T2, Glucocorticoid receptor (Homo sapiens, UniProt P04150)
T2 sequence (P04150 whole entry): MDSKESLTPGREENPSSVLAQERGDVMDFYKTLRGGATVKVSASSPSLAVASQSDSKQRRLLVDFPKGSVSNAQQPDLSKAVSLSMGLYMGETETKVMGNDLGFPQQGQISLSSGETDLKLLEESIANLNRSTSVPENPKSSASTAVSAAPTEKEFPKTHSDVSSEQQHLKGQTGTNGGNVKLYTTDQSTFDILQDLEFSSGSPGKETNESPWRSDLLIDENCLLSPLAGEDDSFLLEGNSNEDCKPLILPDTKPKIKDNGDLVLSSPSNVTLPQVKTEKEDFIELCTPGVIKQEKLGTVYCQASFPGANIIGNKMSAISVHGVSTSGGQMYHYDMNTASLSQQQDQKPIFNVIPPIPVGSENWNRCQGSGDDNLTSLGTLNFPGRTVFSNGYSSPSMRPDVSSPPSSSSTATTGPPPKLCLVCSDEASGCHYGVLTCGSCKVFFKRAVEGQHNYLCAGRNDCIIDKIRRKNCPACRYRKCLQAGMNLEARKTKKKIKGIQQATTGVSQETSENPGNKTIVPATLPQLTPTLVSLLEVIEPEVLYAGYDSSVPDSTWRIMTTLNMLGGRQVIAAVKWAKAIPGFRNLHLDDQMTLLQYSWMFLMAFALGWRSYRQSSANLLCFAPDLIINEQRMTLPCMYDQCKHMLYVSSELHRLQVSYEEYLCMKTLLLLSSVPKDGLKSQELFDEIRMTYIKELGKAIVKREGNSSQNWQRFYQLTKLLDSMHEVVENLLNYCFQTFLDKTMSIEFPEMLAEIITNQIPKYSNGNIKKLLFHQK
Description: Displacement of fluorescent labelled Dexamethasone from glucocorticoid receptor

[13] = target: T2, Glucocorticoid receptor; remark: listed apart in the source
Description: Agonist activity at human glucocorticoid receptor in human A549 cells assessed as transcriptional activity by MMTV luciferase reporter gene assay

[14] = target: Cytochrome P450 3A4 (Homo sapiens, UniProt P08684)
Chain of Cytochrome P450 3A4 (P08684 whole entry): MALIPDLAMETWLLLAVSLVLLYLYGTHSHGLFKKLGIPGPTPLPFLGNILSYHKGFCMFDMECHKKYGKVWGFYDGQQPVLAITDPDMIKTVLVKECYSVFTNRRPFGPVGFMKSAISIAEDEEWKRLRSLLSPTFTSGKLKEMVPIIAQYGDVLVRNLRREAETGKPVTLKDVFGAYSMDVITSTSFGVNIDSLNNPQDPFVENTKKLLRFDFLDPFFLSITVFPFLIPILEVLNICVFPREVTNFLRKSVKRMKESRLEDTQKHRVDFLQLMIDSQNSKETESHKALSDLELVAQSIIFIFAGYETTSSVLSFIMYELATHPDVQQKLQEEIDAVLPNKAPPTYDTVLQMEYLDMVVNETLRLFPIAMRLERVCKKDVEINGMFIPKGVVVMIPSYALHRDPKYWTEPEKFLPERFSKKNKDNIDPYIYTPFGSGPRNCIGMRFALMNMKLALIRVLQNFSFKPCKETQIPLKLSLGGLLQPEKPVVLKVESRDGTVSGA

Chain of Cytochrome P450 2C9 (P11712 whole entry): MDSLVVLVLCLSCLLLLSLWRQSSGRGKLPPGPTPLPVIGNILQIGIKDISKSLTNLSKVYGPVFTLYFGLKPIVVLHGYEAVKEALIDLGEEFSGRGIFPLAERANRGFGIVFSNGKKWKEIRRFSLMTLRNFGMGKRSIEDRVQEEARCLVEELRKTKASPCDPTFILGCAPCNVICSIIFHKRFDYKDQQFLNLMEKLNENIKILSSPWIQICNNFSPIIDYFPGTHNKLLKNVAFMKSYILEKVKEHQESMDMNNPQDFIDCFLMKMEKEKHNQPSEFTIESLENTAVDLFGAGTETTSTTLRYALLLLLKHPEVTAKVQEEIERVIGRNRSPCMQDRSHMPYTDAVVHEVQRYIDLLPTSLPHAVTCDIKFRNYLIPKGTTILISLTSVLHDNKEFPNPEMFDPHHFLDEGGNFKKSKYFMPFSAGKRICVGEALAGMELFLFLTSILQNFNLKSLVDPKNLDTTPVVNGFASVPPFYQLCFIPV
Chain of Albumin (P02768 whole entry): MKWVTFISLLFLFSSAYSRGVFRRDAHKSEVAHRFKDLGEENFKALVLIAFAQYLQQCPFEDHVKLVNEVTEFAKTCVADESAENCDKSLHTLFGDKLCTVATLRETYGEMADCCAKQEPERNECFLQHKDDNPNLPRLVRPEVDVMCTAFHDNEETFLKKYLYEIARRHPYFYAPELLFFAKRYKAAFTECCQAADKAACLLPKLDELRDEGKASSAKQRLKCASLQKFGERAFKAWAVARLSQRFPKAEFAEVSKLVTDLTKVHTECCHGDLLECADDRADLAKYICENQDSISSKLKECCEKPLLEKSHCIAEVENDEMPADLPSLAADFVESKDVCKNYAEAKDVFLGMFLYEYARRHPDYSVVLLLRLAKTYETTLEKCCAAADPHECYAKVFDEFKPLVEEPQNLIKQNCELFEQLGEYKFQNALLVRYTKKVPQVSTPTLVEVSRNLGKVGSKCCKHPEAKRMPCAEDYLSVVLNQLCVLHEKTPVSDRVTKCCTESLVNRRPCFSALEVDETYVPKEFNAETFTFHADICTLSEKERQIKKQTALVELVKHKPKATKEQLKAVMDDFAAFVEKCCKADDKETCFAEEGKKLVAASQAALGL
Chain of Cytochrome P450 2C19 (P33261 whole entry): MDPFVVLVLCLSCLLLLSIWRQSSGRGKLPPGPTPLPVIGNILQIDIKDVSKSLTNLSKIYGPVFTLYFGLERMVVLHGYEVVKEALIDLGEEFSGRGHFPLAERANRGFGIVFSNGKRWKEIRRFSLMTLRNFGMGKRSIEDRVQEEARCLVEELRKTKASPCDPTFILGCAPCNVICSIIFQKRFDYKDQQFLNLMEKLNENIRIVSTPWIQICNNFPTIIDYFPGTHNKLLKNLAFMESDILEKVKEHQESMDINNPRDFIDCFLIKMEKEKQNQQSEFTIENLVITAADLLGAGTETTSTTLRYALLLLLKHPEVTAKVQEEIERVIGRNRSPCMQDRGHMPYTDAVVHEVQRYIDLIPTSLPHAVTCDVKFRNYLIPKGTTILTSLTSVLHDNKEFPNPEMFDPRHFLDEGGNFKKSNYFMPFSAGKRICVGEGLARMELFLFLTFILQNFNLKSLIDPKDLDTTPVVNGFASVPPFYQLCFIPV
Chain of Cytochrome P450 2D6 (P10635 whole entry): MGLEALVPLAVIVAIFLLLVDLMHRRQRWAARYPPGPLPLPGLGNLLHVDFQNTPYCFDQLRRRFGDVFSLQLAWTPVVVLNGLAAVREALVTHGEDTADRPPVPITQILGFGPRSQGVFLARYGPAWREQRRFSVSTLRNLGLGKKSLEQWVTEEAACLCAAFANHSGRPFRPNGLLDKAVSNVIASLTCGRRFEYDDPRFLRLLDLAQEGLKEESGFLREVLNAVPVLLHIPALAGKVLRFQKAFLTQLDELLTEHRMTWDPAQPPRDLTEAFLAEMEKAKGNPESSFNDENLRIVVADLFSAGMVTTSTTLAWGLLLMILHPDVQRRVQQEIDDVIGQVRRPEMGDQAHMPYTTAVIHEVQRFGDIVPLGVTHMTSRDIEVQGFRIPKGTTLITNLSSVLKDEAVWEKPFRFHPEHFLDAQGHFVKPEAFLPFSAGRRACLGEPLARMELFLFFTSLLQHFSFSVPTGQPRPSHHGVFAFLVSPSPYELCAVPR

IC50 [1]	IC50 [3]	IC50 [4]	IC50 [5]	IC50 [6]	Activity [7]	fraction unbound [8]	clearance [9]	Vd [10]	bioavailability [11]	IC50 [12]	EC50 [13]	IC50 [14]	Compound	Activity [2]
0.02 µM	100 µM	40 µM	13 µM	100 µM	81%	0.32	8 mL/min/kg	0.9 L/kg	44%	0.0158 µM	0.0501 µM	76 µM	Nc1c(C(=O)NCC(O)(CN(CCO)C(=O)c2c(F)cccc2F)C(F)(F)F)cnn1-c1ccc(F)cc1 (stereo not drawn)	94%
0.01 µM	100 µM	8 µM	4 µM	20 µM	93%	0.07	21 mL/min/kg	2.6 L/kg	39%	0.02 µM	0.0501 µM	0.5 µM	Nc1c(C(=O)NCC(O)(CN(CCF)C(=O)c2c(F)cccc2F)C(F)(F)F)cnn1-c1ccc(F)cc1 (racemic)	94%
